Results from patent publication US20100197765A1, “METHOD FOR PROMOTING THE EXPRESSION OF P53, AND P53 EXPRESSION PROMOTER FOR USE IN THE METHOD” (THE UNIVERSITY OF TOKUSHIMA, priority 2007, published 2010).

How the values were obtained:
HepG2 cells = assay: apoptosis (Apoptotic evaluation 1) of siRNA-expressing HepG2 cells treated with 5-FU; type: cell-based, human; settings: control siRNA-expressing HepG2 cells treated with 5-FU
Procedure: Objective cells were treated with various anticancer agents, and then incubated with trypsin/EDTA to prepare cell suspensions. The cell suspensions were centrifuged and supernatants thereof were removed. Thereafter, the cell suspensions each were immobilized and stained with a solution of formaldehyde of 3.7%, Nonidet P40 of 0.5%, and 10 μg/mL of Hoechst33258 (Invitrogen) in PBS. […] The counting was performed with respect to at least 300 cells in one measurement.
Each type of the recombinant vectors was transfected into HepG2 cells for 18 hours in the same manner as in the above-described item (1). Each type of the transfection cells was treated with an anticancer agent “5-FU” having a predetermined concentration (0, 10, 30 μmol/L) for 60 hours. Then, the apoptosis (%) of the treated cells was examined according to “Apoptosis evaluation 1”. FIG. 1B is a graph showing apoptosis (%) in each type of the cells treated with 5-FU having a predetermined concentration (means±SD, n=3).

HCT116 cells [1] = assay: p53 mRNA, vegf IresRNA and vegf mRNA in HCT116 cells exposed to genotoxic stress (Northern); type: cell-based, human
Procedure: HCT116 cells (parent cells) were exposed to genotoxic stress that upregulates the expression of p53 mRNA. […] Also, HCT116 cells were exposed to UV-B for 1 minute. Then, after placing them under non-exposed conditions for a predetermined time (6, 12 hours), the expressions were examined in the same manner as in the above.

p53-deleted cells HCT116 = assay: apoptosis (TUNEL) in p53-deleted HCT116 cells with vegf siRNA and 5-FU; type: cell-based, human; settings: p53-deleted cells HCT116, treatment with 5-FU
Procedure: Apoptotic cells were evaluated by a TUNEL staining method using in situ Cell Death Detection kit (Roche Diagnostic). […] The counting was performed with respect to at least 300 cells in one measurement.
Various types of cells were treated with 5-FU, which is an anticancer agent inducing apoptosis in a p53-dependent manner, and the sensitivity to apoptosis was analyzed. The vegf siRNA#1 vectors expressing siRNA#1, the vegf siRNA #2 vectors expressing siRNA #2, and the control siRNA vectors described above respectively were transfected into HCT 116 (parent cells) and p53-deleted cells HCT116. Then, the cells after 18 hours from the transfection was treated for 60 hours in the presence of […] of 5-FU (+) or in the absence of 5-FU (−). The proportion (%) of apoptosis positive cells in the thus-treated cells was calculated based on “Apoptotic evaluation 2” above (means±SD, n=4).

[2] = tested on: noxa mRNA, puma mRNA, and p21 mRNA; assay: expression of mRNAs induced in p53 pathways in HepG2 cells (Northern); type: cell-based, human; settings: control siRNA HepG2 cells, 5-FU 30 μmol/L, 16 hours
Procedure: In the same manner, HepG2 cells transfected with each type of the vectors were treated for 16 hours in the presence of 5-FU (30 μmol/L) (+) or the absence of 5-FU (−). With respect to the treated cells, expression of noxa mRNA, puma mRNA, and p21 mRNA induced in p53 pathways was analyzed by the Northern blotting. […] In FIG. 1D, the first row from the top indicates expression of noxa mRNA, the second row indicates expression of puma mRNA, the third row indicates expression of p21 mRNA, and the fourth row indicates expression of gapdh mRNA. Definitions of the lanes in FIG. 1D are the same as those of FIG. 1C.

HCT116 cells [3] = assay: apoptosis of siRNA-expressing HCT116 cells treated with low-concentration anticancer agents, with or without rVEGF; type: cell-based, human; settings: HCT116 not expressing siRNA (NT) and control siRNA cells, low concentrations, 60 hours
Procedure: The recombinant vectors that express vegf siRNA#1 and #2 and the vectors that express control siRNA were transfected into HCT116 cells (parent cells, wild-type p53). As a control cell, an HCT116 cell not transfected with a recombinant vector that expresses siRNA was used. These four types of cells were treated in the presence or absence of various anticancer agents having the final concentrations as described below for 60 hours. As the anticancer agent, etoposide (20 μmol/L), doxorubicin (170 nmol/L), and 5-FU (40 μmol/L) were used. With respect to the treated cells, apoptosis (%) was quantified in the same manner as in Example A1.
UTR RNA and function of VEGF protein. With the aim of clarifying an effect of blocking the function of vegf 5′ UTR RNA, recombinant VEGF protein (R&D systems, hereinafter referred to as “rVEGF”) was added to a culture supernatant of cells transfected with vegf siRNA in order to add VEGF protein that is decreased due to siRNA. […] Therefore, in Example A9, 1 ng/ml of rVEGF protein was added to the four types of cells. […] Then, these transfection cells were treated with anticancer agents in the same manner as described above.

p53 mRNA [4] = assay: degradation/silencing of exogenous p53 mRNA in H1299 cells (Northern); type: cell-based, human; settings: H1299, cycloheximide 50 μg/ml, 16 hours
Procedure: In the same manner as in Example A4, the p53 expression vectors and each type of the recombinant plasmid vectors, pVC and pVCmut5′, or empty vectors (mock) were cotransfected into H1299 cells (p53 null), and the cells were cultured for 12 hours. RNA was collected from each type of the transfection cells, the RNA was separated by a denatured agarose gel electrophoresis, and exogenous p53 mRNA and its degradation product were detected by the Northern blotting. FIG. 7A is a photograph showing exogenous p53 mRNA and its degradation product in each type of the cells. In FIG. 7A, the lane 1 “mock” indicates the result obtained regarding the cells transfected with the empty vectors, the lane 2 “VEGF mut5′” indicates the result obtained regarding the cells transfected with pVCmut5′, and the lane 3 “VEGF 5” indicates the result obtained regarding the cells transfected with pVC. The size (nt) of an RNA marker (Ambion, Inc.) was shown on the left of the photograph of blotting.
First, the p53 expression vectors and each type of the recombinant plasmid vectors, pVC and pVCmut5′, were cotransfected into H1299 cells (p53 null), and the cells were cultured for 8 hours. […] With respect to the treated cells, the expression level of p53 mRNA was analyzed by the Northern blotting. […]

p53 mRNA [5] = assay: cell-free protein synthesis reaction after heteroduplex formation; type: biochemical, human; settings: cell-free protein synthesis with p53 mRNA/5′ UTR RNA heteroduplex, cycloheximide added
Procedure: (5) Detection of p53 mRNA and its Degradation Product In the same manner as in the above-described item (3), mutant 5′ UTR RNA or 5′ UTR was incubated with p53 mRNA. As described above, mutant 5′ UTR RNA and p53 mRNA form a heteroduplex by incubation. Then, using the treated RNA samples, in the presence or absence of cycloheximide (final concentration of […]) or in the presence of purified ribosome prepared by a sucrose density-gradient centrifugation method, a cell-free protein synthesis reaction was performed. The cell-free protein synthesis was carried out by making reference to the research paper (Huez, I. et al. Mol. Cell. Biol. 18, 6178-6190 (1998)) or using Wako PURE system (trade name, Wako Chemical) following the specifications thereof.
In the same manner as in the above-described item (4), RNAs each were incubated in the combination shown in FIG. 8E, and cell-free protein synthesis was carried out. In this state, [^35S] methionine coexisted in a reaction solution of cell-free protein synthesis. Then, p53 protein synthesized in vitro was separated by SDS-PAGE using a polyacrylamide gel of 12%, and a dried gel was subjected to an autoradiography. FIG. 8E is an autoradiography showing synthesis of p53 protein in a reaction solution of cell-free protein in the presence of vegf 5′ UTR. […]

vegf IresRNA = assay: p53 mRNA in p53-deleted HCT116 cotransfected with p53 vector, vegf IresRNA vector and decoy or antisense LNA-DNA (Northern); type: cell-based, human
[6] = tested on: HCT116 cells (wild-type p53); assay: survival rate of HCT116 cells transfected with decoy or antisense LNA-DNA after 5-FU; type: cell-based, human; settings: after 5-FU (40 μmol/L)
Procedure: The wild-type and mutant-type p53 decoy LNA-DNA were transfected into HCT116 cells (wild-type p53). The cells transfected with the decoys were cultured in McCoy's 5A medium containing 10% fetal bovine serum and 100 μg/ml (100 units/ml) of streptomycin, and the relative value of the survival rate (%) was calculated according to “Apoptosis evaluation 2”. The relative value was obtained with the number of viable cells of 5-FU untreated cells being considered as 100%. In addition, the survival rate of HCT cells (p53) not transfected with the decoys also was calculated in the same manner as described above.
The wild-type and mutant-type vegf antisenses were transfected into HCT116 cells (wild-type p53). With respect to the cells transfected with the antisenses, the relative value of the survival rate (%) was calculated in the same manner as in Example C4. The relative value was obtained with the number of viable cells of 5-FU untreated cells being considered as 100%. In addition, the survival rate of HCT cells (wild-type p53) not transfected with the vegf antisenses was also calculated in the same manner as described above.

[7] = vegf antisense LNA-DNA cotransfected with vegf IresRNA and p53 expression vectors

Compound: O=c1[nH]cc(F)c(=O)[nH]1 [5-FU, 5-fluorouracil, reference compound]
- proportion of apoptosis (HepG2 cells): slightly increased
- vegf IresRNA and vegf mRNA expression (HCT116 cells [1]; HCT116, 5-FU 80 μmol/L or MMC 6 μg/ml, 0, 6, 12 hours): increased markedly
- expression of the p53 mRNA (HCT116 cells [1]; HCT116, 5-FU 80 μmol/L, MMC 6 μg/ml or cisplatin 5 μg/ml, 0, 6, 12 hours): suppressed
- proportion of apoptosis (p53-deleted cells HCT116): increased slightly
- expression of p21 mRNA [2]: slightly induced
- significant enhancement of apoptosis (HCT116 cells [3]): not induced

Compound: C[C@@H]1C[C@@H]([C@H](O)CC2CC(=O)NC(=O)C2)C(=O)[C@@H](C)C1 [cycloheximide]
- effect on silencing of p53 mRNA due to vegf 5′ UTR (p53 mRNA [4]): marked inhibition of silencing
- effect on partial degradation of p53 mRNA (p53 mRNA [5]): completely blocked

Compound: COc1cccc2c1C(=O)c1c(O)c3c(c(O)c1C2=O)C[C@@](O)(C(=O)CO)C[C@@H]3O[C@H]1C[C@H](N)[C@H](O)[C@H](C)O1 [doxorubicin, reference compound]
- significant enhancement of apoptosis (HCT116 cells [3]): not induced

Compound: COc1cc([C@@H]2c3cc4c(cc3[C@@H](O[C@@H]3O[C@@H]5CO[C@@H](C)O[C@H]5[C@H](O)[C@H]3O)[C@H]3COC(=O)[C@H]23)OCO4)cc(OC)c1O [etoposide, reference compound]
- significant enhancement of apoptosis (HCT116 cells [3]): not induced

Compound: mutant-type p53 decoy: LNA-DNA of the p53 decoy sequence introduced with mutation, SEQ ID NO: 94, 5′-cccGCcCACCcGGctgGTcca-3′ (DNA CCCGCCCACCCGGCTGGTCCA; LNA-DNA mixmer, LNA positions not given here)
- expression amount of p53 mRNA (vegf IresRNA; p53 decoy LNA-DNA cotransfected with vegf IresRNA and p53 expression vectors): small

Compound: mutant-type vegf antisense: antisense LNA-DNA having the sequence introduced with mutation, SEQ ID NO: 95, 5′-cccGCcCGggTcGTcCgcAccA-3′ (antisense CCCGCCCGGGTCGTCCGCACCA; LNA-DNA mixmer, LNA positions not given here)
- expression amount of p53 mRNA (vegf IresRNA; [7]): small

Compound: wild-type p53 decoy: LNA-DNA corresponding to a sequence from base 462 to base 482 of p53 mRNA, SEQ ID NO: 93, 5′-ccccgcgtggcccctgcacca-3′ (DNA CCCCGCGTGGCCCCTGCACCA; LNA-DNA mixmer, LNA positions not given here)
- survival rate of cells ([6]; p53 decoy, vs no decoy and mutant-type decoy): decreased

Compound: wild-type vegf antisense: antisense LNA-DNA complementary to bases 693 to 714 of vegf IresRNA, SEQ ID NO: 74, 5′-ccccgcgcggaccacggctcct-3′ (antisense CCCCGCGCGGACCACGGCTCCT; LNA-DNA chimera, LNA positions not given here)
- survival rate of cells ([6]; vegf antisense, vs cells (none) not transfected): markedly decreased
- expression amount of p53 mRNA (vegf IresRNA; [7]): marked expression amount
